Patent US20260232707A1, “METABOLIC INHIBITORS AND METHODS OF MAKING AND USING THEREOF” (UNIVERSITY OF MIAMI, priority 2023, published 2026)
Entries after “also recorded” stand apart in the source; their conditions may differ.

What was measured:
[1] = tested on: 4T1 breast cancer cell line; experiment: Seahorse glycostress assay (ECAR); format: cell-based, murine; settings: 4T1 cells, 6 h; for glycolysis inhibition (ECAR): compared with control group; for glycolytic inhibitory properties compared to NaDCA: 200 μM vs NaDCA 600 μM
Description: FIGS. 3A-3C show cellular glycolysis inhibition by Mito-SilylDCA. Glycolytic inhibition efficacy of Mito-SilylDCA was investigated along with the components used for synthesizing Mito-SilylDCA. (FIG. 3A) Chemical structures of TPP-(CH2)5—COOH), methoxyl(octadecyldimethyl)silane, sodium dichloroacetate (NaDCA), Mito-DCA, and Mito-SilylDCA. (FIG. 3B) Extracellular acidification rate (ECAR) measured in 4T1, murine breast cancer cell line, upon treatment with the compounds mentioned in A. The cells were pre-treated with the test articles at the following concentration: TPP-(CH2)5—COOH (200 μM), methoxy (octadecyldimethyl)silane (200 μM), NaDCA (600 μM), Mito-DCA (200 μM), or Mito-Silyl-DCA (200 μM), for 6 h. Port injections for the seahorse glycostress assay included glucose (10 mM) in port A, oligomycin (1 μM) in port B, and 2-DG (50 mM) in port C. (FIG. 3C) Graphical representation quantifying the change in glycolysis, glycolytic capacity, and glycolytic reserve parameters upon treatment with test articles. The data in FIG. 3C was generated as an average from 3 independent biological replicates. The statistical significance between the treatment groups was measured by ordinary one-way analysis of variance (ANOVA) using multiple comparison.
Cellular glycolysis inhibition by Mito-SilylDCA. Glycolysis inhibitory efficacy of Mito-Silyl-DCA was investigated in 4T1 breast cancer cell line which is known to be aggressive and highly glycolytic in nature with an overexpression of PDK1.^6 The Seahorse glycostress assay was performed to understand the metabolic fluxes of glycolysis. The 4T1 cells grown in normoxia were treated with TPP-(CH2)5—COOH) (200 μM), methoxyl(octadecyldimethyl)silane (200 μM), NaDCA (600 μM), Mito-DCA (200 μM), or Mito-Silyl-DCA (200 μM) for 6 h followed by washing and returning the cells to a glucose-free medium (FIG. 3A). The extracellular acidification rate (ECAR) traces were then monitored in response to the sequential administration of glucose, oligomycin, and 2-deoxy-D-glucose (2-DG) to assess glycolysis, glycolytic capacity, and glycolytic reserve, respectively. […] The data shown here are average from three independent biological replicates.
Glycolysis inhibition in highly glycolytic cells. This example documented inhibition of glycolysis in 4T1 cells by Mito-SilylDCA using Seahorse glycostress assay (FIG. 3B). The Seahorse glycostress assay was performed to check the metabolic fluxes of glycolysis. 4T1 cells were treated with TPP-hexanoic acid (200 μM), methoxyl(octadecyldimethyl)silane (200 μM), sodium dichloroacetate (DCA) (600 μM), Mito-DCA (200 μM), or Mito-SilylDCA (200 μM) for 6 h followed by washout and returned to glycose-free medium. The extracellular acidification rate (ECAR) was monitored in response to the sequential administration of glucose, oligomycin, and 2-deoxy-D-glucose (2-DG) to assess glycolysis, glycolytic capacity, and glycolytic reserve, respectively (FIG. 3C).

[2] = Stability at different pH values by HPLC and LC-MS (Example 1); format: physicochemical; settings: for degradation / stability at acidic pH: acidic pH (4.0); for stability in alkaline conditions: alkaline conditions (pH 9.5); for stability in alkaline conditions / hydrolysis in neutral conditions: DMF-water (2/1, v/v), room temperature; for hydrolysis in neutral conditions: neutral conditions (pH 7.4)
Procedure: FIGS. 2A-2B. Stability of Mito-SilylDCA at different pH values. Traces of HPLC plots of (FIG. 2A) Mito-SilylDCA and (FIG. 2B) Mito-DCA in solutions of different pH values along with plots of percent of the compound remained with time. A solution of Mito-SilylDCA or Mito-DCA in DMF-water (2/1, v/v) was incubated for different times (12 h, 24 h, and 48 h) at different pH environments (4.0, 7.4, and 9.5) at room temperature.
Stability of Mito-SilylDCA. A combination of HPLC and LC-MS analytical techniques were employed to understand the stability of Mito-SilylDCA in different physiological environments. A solution of Mito-SilylDCA or Mito-DCA in DMF-water (2/1, v/v) was incubated for 12, 24, and 48 h at different pH environments of 4.0, 7.4, and 9.5 at room temperature and the degradation behavior of the compounds was analyzed with HPLC and LC-MS (FIGS. 2A and 2B). […] After 12 h, more than 60% of compounds are decomposed at pH 7.4, which should be due to the hydrolysis of DCA and the silyl chain. […] Both Mito-DCA and Mito-SilylDCA were unstable in alkaline conditions and the compounds decomposed easily. […] The better stability of Mito-SilylDCA compared to Mito-DCA would be beneficial for the long-term storage and further application in biological environment.

[3] = mouse, in vivo
Procedure: Thus, the experiment investigated the efficacy of T-Mito-SilylDCA-NPs in an in vivo mouse model in combination with a cisplatin prodrug, Platin-M^20-21. […] Thus for this study, luciferase tagged MDA-MB-231BR^Luc cells in Balb/c nude mice were used. The experiment implanted MDA-MB-231BR^Luc cells in the right flank of N=7 female Balb/c nude mice (FIG. 5A). […] Once the tumors were established, these animals were treated with a combination of T-Platin-M-NP and T-Mito-SilylDCA-NP in a sequential manner to inhibit first OXPHOS with T-Platin-M-NP^20 and simultaneous inhibition of resulting glycolysis T-Mito-SilylDCA-NP. This study included two groups: Group 1, saline with n=3 animals and group 2, combination of T-Platin-M-NPs and T-Mito-SilylDCA-NPs with n=4 animals (FIG. 5A). The tumor bearing animals were treated with saline or combination therapeutics for 4 weeks following a biweekly treatment regimen which involved tail i.v injections of 10 mg/kg dose of T-Platin-M-NP with respect to Platin-M 24 h prior to 30 mg/kg dose of T-Mito-Silyl-DCA-NP with respect to Mito-SilylDCA. […] All the images were taken at the same aperture and field of view was kept at 22.4 cm. […]
The present study administered T-Mito-SilylDCA to mice via intravenous injection and quantified the accumulation of NPs using ICP-MS analyses.

[4] = Chemical stability at different pH by HPLC and LC-MS (Example 2); format: physicochemical; settings: DMF/water (1/1, v/v), 24 h, pH 4.5, 5.5, 6.5, 7.4, 8.5, room temperature
Procedure: Stability of Mito-SilylDCA. With Mito-SilylDCA in hand, the chemical stability was checked to ensure the efficacy of drug in different physiological environments. A mixed solution of Mito-SilylDCA in DMF/water (1/1, v/v) was incubated for 24 h in different pH environment (4.5, 5.5, 6.5, 7.4, 8.5) at room temperature. Then the solutions were measured with HPLC and LC-MS to check the degradation behavior of the compounds.

SMILES | glycolysis inhibition (ECAR) ([1]; 200 μM) | glycolytic inhibitory properties compared to NaDCA [1] | degradation / stability at acidic pH [2] | stability in alkaline conditions [2] | hydrolysis in neutral conditions [2] | glycolysis inhibition capability compared to Mito-DCA ([1]; 200 μM) | accumulation in the tumor [3] | biodistribution: organs in which present [3] | chemical stability [4] | decomposition compared with Mito-DCA ([2]; acidic conditions (pH 4.0), period of 24 h)
O=C(O)CCCCC[P+](c1ccccc1)(c1ccccc1)c1ccccc1.[Br-] [TPP-(CH2)5—COOH), (5-carboxypentyl)triphenylphosphonium bromide, reference compound] | No detectable changes in glycolysis levels |  |  |  |  |  |  |  |  | 
O=C(CCCCC[P+](c1ccccc1)(c1ccccc1)c1ccccc1)NC(COC(=O)C(Cl)Cl)(COC(=O)C(Cl)Cl)COC(=O)C(Cl)Cl [Mito-DCA, reference compound] | significant glycolysis inhibition | significantly higher | relatively slow degradation | unstable | hydrolyzed in a short time |  |  |  |  | 
CCCCCCCCCCCCCCCCCC[Si](C)(C)OCC(COC(=O)C(Cl)Cl)(COC(=O)C(Cl)Cl)NC(=O)CCCCC[P+](c1ccccc1)(c1ccccc1)c1ccccc1 [Mito-SilylDCA] | significant inhibition of glycolysis | significantly higher | relatively slow degradation; also recorded: most stable at an acidic pH | unstable | hydrolyzed in a short time | not significantly decreased | a significant portion of Mito-SilylDCA accumulated in the tumor | liver, tumor mass, brain, kidney, and spleen | stable in neural and weak acidic conditions | slower than Mito-DCA
CCCCCCCCCCCCCCCCCC[Si](C)(C)OC [methoxyl(octadecyldimethyl)silane, reference compound] | No detectable changes in glycolysis levels |  |  |  |  |  |  |  |  | 
